This is an account of results in patent publication US12275961B2, “Method for utilizing engineered dendritic cells to induce gut-homing regulatory T cells and treat gut inflammation” (LOMA LINDA UNIVERSITY, priority 2015, dated 2025).

Data set [1] deals with dextran sodium sulfate-induced inflammatory bowel disease. The data set is described as follows: DSS-induced inflammatory bowel disease, six-group study (Example V). The format is in vivo, mice. From the text: Then, the efficacy of the disclosed agents and method was confirmed in an additional study. […] Injections were made at day 7 post-disease induction by dextran sodium sulfate. All mice were sacrificed at day 10.

The subject of data set [2] is foxp3 expression in activated T cells. The data set is described as follows: foxp3 expression in T cells of splenocytes activated by anti-CD3/CD28 beads with exogenous calcitriol. The following applies: 72 hours. In kind it is cell-based, mouse. The text has this: The naive mouse splenocytes can be cultured for 3 days with 1,25 Vitamin D (100 U/ml, Sigma-Aldrich) in the presence of human (h) IL-2 (50 U/ml) in complete RPMI 1640 medium (10% FBS; HyClone). The cells were harvested and stained for the FoxP3 expression with an anti-FoxP3 Ab (FJK-16s; eBioscience) and CCR9 expression.
A supraphysiological concentration of the active vitamin D metabolite, 1,25[OH]2D (calcitriol), may be necessary for calcitriol to induce foxp3 expression during T cell priming. Foxp3 is a protein that is involved in the regulatory pathway in the development and function of regulatory T cells. To determine whether a supraphysiological concentration is necessary, foxp3 expression in T cells during T cell activation in the presence of exogenous calcitriol can be examined. Splenocytes can be activated by anti-CD3/CD28 magnetic beads. In some cultures, 1,25[OH]2D can be added at a low (20 nM) or high (100 nM) concentration. Cells can be cultured for 72 hours and analyzed for foxp3 expression using flow cytometry. Flow cytometry can be performed by harvesting transduced mCYP27B1-positive DCs, washing them in PBS, resuspending them in the FACS buffer, and analyzing them for GFP expression on a flow cytometer. […] The normal range of human calcitriol serum concentration is 16˜56 pg/ml (0.038 nM 0.13 nM). […]

The conditions of data set [3]: some patients; cited from earlier work.
The mark [4] stands for this setting: injection at day 7 post-DSS, sacrifice day 10.

Molecules are shown by their SMILES. “And” between values parts separate entries of the source, which are not always exact repeats. Equal values may be shown once.

Regarding `C=C1C(=CC=C2CCC[C@]3(C)[C@@H]2CC[C@@H]3[C@H](C)CCCC(C)(C)O)C[C@@H](O)C[C@@H]1O` [calcitriol, (1R,3S)-5-[2-[(1R,3aR,7aS)-1-[(2R)-6-hydroxy-6-methyl-heptan-2-yl]-7a-methyl-2,3,3a, 5,6,7-hexahydro-1H-inden-4-ylidene]ethylidene]-4-methylidene-cyclohexane-1,3-diol], in data set [1] (calcitriol 200 ng/day/mouse intraperitoneal), the “increase in serum calcium” value was “more than 30%”. In data set [1] (setting [4]), the “colon lesions / mucosal integrity” value was “did improve colon mucosal integrity”. Moreover, in data set [1] (setting [4]), the hypercalcemia entry is “severe hypercalcemia”. In data set [1] (injection at day 7 post-DSS, sacrifice day 10, calcitriol 200 ng/day/mouse intraperitoneal), the body weight loss result was “failed to prevent body weight loss”. In addition, the entries for the “foxp3 expression in activated T cells” value in data set [2] (20 nM) and in data set [2] (100 nM) were “slightly up regulated” and “significantly augment”, respectively. Further, the “serum calcitriol level tolerated without dose-limiting toxicity (hypercalcemia)” value in data set [3] was “up to 300 pg/ml and ≤ 0.72 nM”.
